From PubChem BioAssay (NCI) come the findings set out here.

Among the test systems are COLO 205 colon; DU-145 prostate; HOP-92 NSCLC; HT29 colon; M14 melanoma; NCI-H460 lung; PC-3 prostate; RPMI-8226 leukemia; UACC-62 melanoma; UO-31 renal.
What all share (assay): NCI anticancer screen, dose series, 48 h

SMILES strings stand for the structures. “And” between values parts separate entries of the source, which are not always exact repeats. Equal values may be shown once.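 48-hour exposure; five concentrations; linearly interpolated endpoints. Here, GI50 denotes the concentration required for 50% inhibition of growth. Definition used: TGI = concentration required for complete inhibition of growth.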

Regarding `O=C1C(Br)=C(c2ccccc2)C(c2ccccc2)=C1c1ccccc1`, the TGI amounted to 3.69 µM in the experiment on COLO 205 colon; 25.9 µM with DU-145 prostate; 3.84 µM in the experiment on HOP-92 NSCLC; 5.15 µM in the experiment on HT29 colon; 4.46 µM in the experiment with M14 melanoma; 18 µM with NCI-H460 lung. The TGI with PC-3 prostate came out at 16.2 µM; with RPMI-8226 leukemia, 5.22 µM; in the experiment on UACC-62 melanoma it was 5.73 µM; in the experiment with UO-31 renal, 12.8 µM.
On to `N#Cc1c(SCc2ccccc2)nc2[nH]c(=S)[nH]c(=S)c2c1-c1ccco1`, for which the GI50 in the experiment on COLO 205 colon is 41.2 µM; with DU-145 prostate, 54 µM; in the experiment on HOP-92 NSCLC, 3.45 µM; in the experiment with HT29 colon, over 100 µM; in the experiment on M14 melanoma, over 100 µM; with NCI-H460 lung it was 32.3 µM. The GI50 in the experiment on PC-3 prostate is 0.448 µM; in the experiment with RPMI-8226 leukemia, 2.22 µM; with UACC-62 melanoma, 21.6 µM; in the experiment with UO-31 renal, 61.2 µM. Moreover, the TGI with COLO 205 colon is over 100 µM; in the experiment with DU-145 prostate it was over 100 µM; in the experiment with HOP-92 NSCLC, 26.2 µM; with HT29 colon it was over 100 µM; with M14 melanoma, over 100 µM; in the experiment with NCI-H460 lung, over 100 µM. The TGI in the experiment with PC-3 prostate was 20.5 µM; with RPMI-8226 leukemia, 13.9 µM; in the experiment on UACC-62 melanoma, 46.6 µM; in the experiment on UO-31 renal, over 100 µM.
For the compound `COc1ccc(/C(Cl)=C(\C=O)c2cc(OC)c(OC)c(OC)c2)cc1OC`, the TGI in the experiment on COLO 205 colon is over 100 µM; with DU-145 prostate it was over 100 µM; in the experiment with HOP-92 NSCLC, over 100 µM; in the experiment with HT29 colon it was 87.7 µM; in the experiment with M14 melanoma it was over 100 µM; with NCI-H460 lung, over 100 µM. Also, the TGI is over 100 µM with PC-3 prostate, 77 µM in the experiment with RPMI-8226 leukemia, over 100 µM with UACC-62 melanoma and over 100 µM with UO-31 renal.
Turning to `CCSc1nc(=S)[nH]c2[nH]ncc12`, the GI50 with COLO 205 colon is 38.1 µM; in the experiment with DU-145 prostate, over 100 µM; in the experiment with HOP-92 NSCLC, 91.6 µM; with HT29 colon it was over 100 µM; in the experiment with M14 melanoma, over 100 µM; in the experiment with NCI-H460 lung it was over 100 µM. Further, the GI50 in the experiment on PC-3 prostate is over 100 µM; in the experiment with RPMI-8226 leukemia, over 100 µM; with UACC-62 melanoma it was 66.3 µM; in the experiment on UO-31 renal, 75.2 µM. In addition, the TGI in the experiment with COLO 205 colon, in the experiment on DU-145 prostate, with HOP-92 NSCLC, with HT29 colon, with M14 melanoma and with NCI-H460 lung was over 100 µM each time. In addition, the TGI with PC-3 prostate, with RPMI-8226 leukemia, in the experiment with UACC-62 melanoma and in the experiment with UO-31 renal was over 100 µM each time.
For the compound `COc1ccc(C(=O)c2ccc(OC)cc2OC)cc1`, the GI50 in the experiment with COLO 205 colon is 1.65 µM; in the experiment on DU-145 prostate, 3.52 µM; in the experiment with HOP-92 NSCLC, 1.84 µM; with HT29 colon it was 2.92 µM; in the experiment with M14 melanoma, 2.47 µM; with NCI-H460 lung it was 3.74 µM. Further, the GI50 in the experiment on PC-3 prostate is 4.38 µM; with RPMI-8226 leukemia, 3.18 µM; in the experiment on UACC-62 melanoma it was 5.67 µM; in the experiment on UO-31 renal, 2.7 µM. For the same compound, the TGI in the experiment with COLO 205 colon was 3.51 µM; with DU-145 prostate, 25.6 µM; in the experiment on HOP-92 NSCLC, 53.9 µM; with HT29 colon, 24.4 µM; in the experiment with M14 melanoma, over 100 µM; in the experiment with NCI-H460 lung, 89.5 µM. In addition, the TGI in the experiment on PC-3 prostate is over 100 µM; in the experiment with RPMI-8226 leukemia, 18.7 µM; in the experiment on UACC-62 melanoma, over 100 µM; in the experiment on UO-31 renal it was 39.6 µM.
As for `CC1=Cc2cc3[n-]c(cc4nc(cc5[n-]c(cc1n2)c(C)c5CCC(=O)O)C(CCC(=O)O)=C4C)cc3C.[Cu+2]`, the GI50 with COLO 205 colon is > 1 µM and 40.7 µM; in the experiment with DU-145 prostate it was 23.5 µM; with HOP-92 NSCLC, > 1 µM and 13.6 µM; in the experiment on HT29 colon, over 100 µM; in the experiment on M14 melanoma, over 79.1 µM; with NCI-H460 lung, over 100 µM. The GI50 in the experiment with PC-3 prostate is 12.9 µM; in the experiment with RPMI-8226 leukemia, > 1 µM and 53.9 µM; with UACC-62 melanoma, > 1 µM and 6.04 µM; with UO-31 renal, > 1 µM and 38.3 µM. For the same compound, the TGI in the experiment with COLO 205 colon is over 100 µM; in the experiment on DU-145 prostate, 85.1 µM; with HOP-92 NSCLC it was > 1 µM and 34.3 µM; in the experiment with HT29 colon, over 100 µM; in the experiment with M14 melanoma it was over 100 µM; in the experiment on NCI-H460 lung, over 100 µM. The TGI was 29.5 µM in the experiment with PC-3 prostate; over 80 µM in the experiment with RPMI-8226 leukemia; > 1 µM and 15.8 µM with UACC-62 melanoma; over 92.7 µM in the experiment with UO-31 renal.
For `Cc1cc(-c2cc(C)c(O)c(C(C)(C)C)c2)cc(C(C)(C)C)c1O`, the TGI in the experiment with COLO 205 colon was 23.1 µM and 28.9 µM; in the experiment with DU-145 prostate, 25.7 µM and 28.5 µM; in the experiment with HOP-92 NSCLC it was 29.8 µM and 17.5 µM; with HT29 colon it was 12.7 µM and 16.4 µM; in the experiment on M14 melanoma it was 22.4 µM and 25.4 µM; in the experiment with NCI-H460 lung, 19.4 µM and 17.8 µM. In addition, the TGI with PC-3 prostate is 19.2 µM and 26.5 µM; in the experiment on RPMI-8226 leukemia, 45.9 µM and 50.4 µM; in the experiment with UACC-62 melanoma, 26.1 µM and 26.8 µM; with UO-31 renal it was 23 µM and 32 µM. Further, the GI50 in the experiment on HOP-92 NSCLC was 15.1 µM and 4.92 µM; in the experiment on PC-3 prostate, 6.09 µM and 13.7 µM.
Regarding `COc1cc(C(=O)O)ccc1NC(=O)[C@@H]1N[C@@H](CC(C)(C)C)[C@](C#N)(c2ccc(Cl)cc2F)[C@H]1c1cccc(Cl)c1F`, the GI50 in the experiment with COLO 205 colon was 3.1 µM; in the experiment on DU-145 prostate, 5.24 µM; in the experiment with HOP-92 NSCLC, 2.48 µM; in the experiment with HT29 colon, 3.39 µM; with M14 melanoma it was 3.18 µM; with NCI-H460 lung it was 0.077 µM. Further, the GI50 with PC-3 prostate was 2.91 µM; in the experiment on RPMI-8226 leukemia, 2.51 µM; in the experiment with UACC-62 melanoma, 0.0909 µM; in the experiment on UO-31 renal, 0.0414 µM. Further, the TGI in the experiment on COLO 205 colon is 12 µM; in the experiment with DU-145 prostate, 30.4 µM; in the experiment on HOP-92 NSCLC, 5.15 µM; in the experiment with HT29 colon, 22.2 µM; in the experiment with M14 melanoma, over 30.1 µM; in the experiment on NCI-H460 lung, 2.27 µM. Further, the TGI with PC-3 prostate is over 42.6 µM; in the experiment with RPMI-8226 leukemia it was over 22.9 µM; with UACC-62 melanoma, 2.13 µM; in the experiment on UO-31 renal, 5.03 µM.
`Cc1c(N(C(=O)c2cc(-c3cc(Cl)ccc3C(=O)N3Cc4ccccc4C[C@H]3CN3CCOCC3)n(C)c2C)c2ccc(O)cc2)cc(C#N)n1C`: the GI50 with COLO 205 colon is 17.1 µM; in the experiment on DU-145 prostate it was 32.5 µM; with HOP-92 NSCLC, 5.24 µM; with HT29 colon, 18.7 µM; in the experiment on M14 melanoma, 21.8 µM; in the experiment with NCI-H460 lung it was 31.3 µM. Besides, the GI50 with PC-3 prostate is 11.3 µM; with RPMI-8226 leukemia it was 7.32 µM; in the experiment with UACC-62 melanoma it was 20.6 µM; in the experiment with UO-31 renal it was 15.6 µM. Besides, the TGI with COLO 205 colon was 35.2 µM; in the experiment with DU-145 prostate, over 100 µM; with HOP-92 NSCLC, 22.6 µM; with HT29 colon, over 100 µM; in the experiment with M14 melanoma it was over 100 µM; with NCI-H460 lung, over 100 µM. The TGI in the experiment on PC-3 prostate, in the experiment with RPMI-8226 leukemia, in the experiment with UACC-62 melanoma and in the experiment on UO-31 renal was over 100 µM in each case.
